6 compounds from PMC3853740, “Chlorinated Didemnins from the Tunicate Trididemnum solidum” (Marine Drugs, 2013) can be followed below.

Where two headings read alike, the source gives them in different places. *1 amine or outer side, *2 acyl side, *3 side chain or, on linkers, in order; H or OH if unused. Where a SMILES comes first, the peptide text is derived from it. Bridges are numbered along the chain shown (N, C = ends). [ ]: non-standard residue; d: D form. X1 = CC[C@H](C)[C@@H](N[*:1])[C@@H](O)CC(=O)O[C@H](C(=O)[C@H](C)C(=O)[*:2])C(C)C; X2 = CC(C(=O)C(OC(=O)CC(O)C(N[*:1])C(C)C)C(C)C)C(=O)[*:2]; X3 = COc1ccc(CC(C(=O)[*:2])N(C)[*:1])cc1Cl; NMeY = CN[C@@H](Cc1ccc(O)cc1)C(=O)O; dNMeL = CN[C@H](CC(C)C)C(=O)O; NMeL = CN[CH](CC(C)C)C(=O)O

Test [1] concerns the target T1, inducible nitric oxide synthase (iNOS) (Mus musculus, UniProt P29477).
T1 construct: endogenous in cells; host or cells: RAW264.7 macrophages, LPS induced
T1 sequence (P29477 1-1144): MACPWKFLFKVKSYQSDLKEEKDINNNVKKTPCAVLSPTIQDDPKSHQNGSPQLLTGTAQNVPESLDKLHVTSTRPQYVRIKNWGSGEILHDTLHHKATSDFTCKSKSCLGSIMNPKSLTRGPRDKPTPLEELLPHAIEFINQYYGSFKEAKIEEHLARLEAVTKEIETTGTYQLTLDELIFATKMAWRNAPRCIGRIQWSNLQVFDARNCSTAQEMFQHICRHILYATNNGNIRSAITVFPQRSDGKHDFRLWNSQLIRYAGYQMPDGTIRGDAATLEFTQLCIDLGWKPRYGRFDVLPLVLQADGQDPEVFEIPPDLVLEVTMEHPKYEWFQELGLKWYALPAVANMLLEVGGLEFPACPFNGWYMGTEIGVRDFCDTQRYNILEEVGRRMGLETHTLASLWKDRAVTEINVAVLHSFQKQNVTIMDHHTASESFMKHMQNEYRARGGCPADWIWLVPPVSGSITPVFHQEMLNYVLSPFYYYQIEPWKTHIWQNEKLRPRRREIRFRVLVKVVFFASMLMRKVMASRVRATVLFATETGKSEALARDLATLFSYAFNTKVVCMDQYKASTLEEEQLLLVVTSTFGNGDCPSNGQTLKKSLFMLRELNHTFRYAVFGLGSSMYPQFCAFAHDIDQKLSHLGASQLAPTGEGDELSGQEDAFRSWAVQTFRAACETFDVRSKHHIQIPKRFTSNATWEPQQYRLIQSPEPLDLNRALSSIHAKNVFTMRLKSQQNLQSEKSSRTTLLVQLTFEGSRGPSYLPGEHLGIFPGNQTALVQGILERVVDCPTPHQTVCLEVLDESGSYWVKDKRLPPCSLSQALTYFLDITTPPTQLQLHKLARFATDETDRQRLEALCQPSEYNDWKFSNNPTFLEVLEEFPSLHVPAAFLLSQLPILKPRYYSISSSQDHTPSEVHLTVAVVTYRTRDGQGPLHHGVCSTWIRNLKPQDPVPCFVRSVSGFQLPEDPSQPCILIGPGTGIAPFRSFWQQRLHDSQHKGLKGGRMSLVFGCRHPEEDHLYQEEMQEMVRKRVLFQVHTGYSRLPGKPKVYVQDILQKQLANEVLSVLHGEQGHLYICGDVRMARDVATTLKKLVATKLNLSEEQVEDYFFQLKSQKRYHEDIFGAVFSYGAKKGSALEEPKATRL
In words: Inhibition of iNOS activity in LPS induced macrophages (RAW264.7 cells). It is filed as cell-based. How it is done: (§1) The isolated compounds 1–4 were tested in a series of in vitro cell-based assays for their effects on selected targets involved in the process of inflammation and cancer. Inflammation and oxidative stress are known to be linked to the development of many disorders such as cancer, organ damage, and neurodegenerative conditions. The NF-κB family of transcription factors plays a key role in inflammation, cell cycle regulation, apoptosis, and oncogenesis by controlling gene network expression. The activation of NF-κB involves many cellular processes leading to inflammation and development of cancer. In the assay for NF-κB activity, a luciferase construct with binding sites for specificity protein (SP-1) was used as a control because this transcription factor is relatively unresponsive to inflammatory mediators such as phorbol myristate acetate (PMA). Inducible nitric oxide synthase (iNOS) plays a key role in regulation of blood pressure, the immune system, infection, and inflammation. Overproduction of nitric oxide (NO) by iNOS has been implicated in various pathological processes such as septic shock, inflammation, rheumatoid arthritis, cancer, and tissue damage. The increase in NO response caused mainly by endotoxins and proinflammatory mediators such as lipopolysaccharide (LPS) can be reduced by anti-inflammatory agents acting as iNOS inhibitors. The isolated metabolites were also evaluated for their cytotoxicity towards four human solid tumor cell lines (SK-MEL: melanoma; KB: epidermal carcinoma; BT549: breast carcinoma and SK-OV-3: ovarian carcinoma) and non-cancer kidney cells (Vero: monkey kidney fibroblasts).
(§2) Similar to the effect of doxorubicin, the compounds (1–3) were less toxic towards noncancerous cells (Vero cells) which were included for comparison. The strong anticancer activity can be partly explained due to a strong inhibition of NF-κB mediated transcription that may cause enhanced apoptosis and cell death.
(§3) Inhibition of NF-κB mediated transcription was determined in SW1353 cells by a reporter gene assay as described by Ma et al.. Inhibition of iNOS activity was determined in RAW264.7 cells as described earlier. In vitro cytotoxicity was determined against a panel of four solid tumor cell lines and compared with noncancerous kidney cells (Vero). Parthenolide and doxorubicin were used as positive controls for anti-inflammatory and cytotoxic activity, respectively.

The test system of test [2] is nuclear factor-kappa B (NF-κB). In words: Inhibition of NF-κB mediated transcription, reporter gene assay in PMA induced SW1353 chondrocytes. The following applies: Homo sapiens, SW1353 cells. It is filed as cell-based. How it is done: as §1, §2, §3
For another test, the system named is SK-MEL. Briefly: In vitro cytotoxicity, SK-MEL melanoma. It is filed as cell-based. The following applies: Homo sapiens, read-out: Anti-cell proliferative activity IC50, SK-MEL. As to the method:
as §1, §3

Another test concerns KB. Briefly: In vitro cytotoxicity, KB epidermal carcinoma. It is filed as cell-based. Conditions: Homo sapiens, read-out: Anti-cell proliferative activity IC50, KB. How it is done: as §1, §3
A further test deals with BT-549. In words: In vitro cytotoxicity, BT-549 breast carcinoma. It is filed as cell-based. The following applies: Homo sapiens. As to the method:
as §1, §3

The next test deals with SK-OV-3. Briefly: In vitro cytotoxicity, SK-OV-3 ovarian carcinoma. It is filed as cell-based. The following applies: Homo sapiens. How it is done:
as §1, §3

The test system of a further test is VERO. In words: In vitro cytotoxicity, Vero non-cancer kidney fibroblasts. Conditions: Primates, read-out: Anti-cell proliferative activity IC50, VERO. It is filed as cell-based, monkey. As to the method:
as §1, §3

Setting [3] is: RAW264.7 cells, LPS induced, read-out: iNOS inhibition IC50.
Setting [4] is: BT-549, read-out: Anti-cell proliferative activity IC50, BT-549.
Where [5] appears, read: SK-OV-3, read-out: Anti-cell proliferative activity IC50, SK-OV-3.

In the case of `CNC(CC(C)C)C(=O)NC1C(=O)NC(C(C)C)C(O)CC(=O)OC(C(C)C)C(=O)C(C)C(=O)NC(CC(C)C)C(=O)N2CCCC2C(=O)N(C)C(Cc2ccc(OC)c(Cl)c2)C(=O)OC1C` (centres unmarked) [Compound 2, nor-N,O-diMe-o-chlorotyrosine derivative of didemnin A] (H-[NMeL]T[X2]LP[X3]; ester 2-C; configuration not given here), the IC50 – broadly, the concentration that gives 50% inhibition – in test [1] (setting [3]) is 420 nM; in test [2] it was 620 nM; with SK-MEL, 60 nM; with KB it was 420 nM; in the test with BT-549 (setting [4]), 160 nM; with SK-OV-3 (setting [5]) it was 380 nM. For the same compound, in the test with VERO, the IC50 was 2080 nM.
Regarding `CCC(C)C1NC(=O)C(NC(=O)C(CC(C)C)NC)C(C)OC(=O)C(Cc2ccc(OC)c(Cl)c2)N(C)C(=O)C2CCCN2C(=O)C(CC(C)C)NC(=O)C(C)C(=O)C(C(C)C)OC(=O)CC1O` (centres unmarked) [Compound 1, N,O-diMe-o-chlorotyrosine derivative of didemnin A], the IC50 amounted to 400 nM in test [1] (setting [3]); 260 nM in test [2]; 120 nM in the test on SK-MEL; 260 nM in the test on KB; 160 nM in the test on BT-549 (setting [4]); 260 nM with SK-OV-3 (setting [5]). Besides, in the test with VERO, the IC50 was determined as 4800 nM.
`COc1cccc2c1C(=O)c1c(O)c3c(c(O)c1C2=O)C[C@@](O)(C(=O)CO)C[C@@H]3O[C@H]1C[C@H](N)[C@H](O)[C@H](C)O1` [Doxorubicin, reference compound]: the IC50 in the test on SK-MEL (melanoma) was determined as 1100 nM; in the test with KB (epidermal carcinoma) it was 1660 nM; in the test on BT-549 (BT-549, breast carcinoma, read-out: Anti-cell proliferative activity IC50, BT-549), 1010 nM; in the test with SK-OV-3 (SK-OV-3, ovarian carcinoma, read-out: Anti-cell proliferative activity IC50, SK-OV-3) it was 1660 nM; in the test on VERO (noncancerous monkey kidney fibroblasts) it was 14000 nM.
`CC[C@H](C)[C@H]1NC(=O)[C@@H](NC(=O)[C@@H](CC(C)C)N(C)C(=O)[C@@H]2CCCN2C(=O)C(C)O)[C@@H](C)OC(=O)[C@H](Cc2ccc(OC)cc2)N(C)C(=O)[C@@H]2CCCN2C(=O)[C@H](CC(C)C)NC(=O)[C@@H](C)C(=O)[C@H](C(C)C)OC(=O)C[C@@H]1O` (some centres unmarked) [Compound 4, didemnin B]: the IC50 in test [1] was determined as 2 nM; in test [2], 30 nM; with SK-MEL, 22 nM; in the test on KB, 90 nM; in the test on BT-549 (setting [4]), 20 nM; in the test on SK-OV-3 (setting [5]), 100 nM. The half-maximal inhibitory concentration (IC50) with VERO was 150 nM.
Regarding `C=C1C(=O)O[C@H]2[C@H]1CC/C(C)=C/CC[C@@]1(C)O[C@@H]21` [Parthenolide, reference compound], the IC50 in test [1] (setting [3]) and in test [2] was 2800 nM in each case.
Regarding `CC[C@H](C)[C@H]1NC(=O)[C@@H](NC(=O)[C@@H](CC(C)C)NC)[C@@H](C)OC(=O)[C@H](Cc2ccc(OC)cc2)N(C)C(=O)[C@@H]2CCCN2C(=O)[C@H](CC(C)C)NC(=O)[C@@H](C)C(=O)[C@H](C(C)C)OC(=O)C[C@@H]1O` [Compound 3, didemnin A] (H-[dNMeL]T[X1]LP[NMeY](Me); ester 2-C), the IC50 in test [1] came out at 190 nM; in test [2] it was 190 nM; in the test with SK-MEL, 55 nM; with KB it was 160 nM; in the test with BT-549 (setting [4]) it was 70 nM; in the test with SK-OV-3 (setting [5]) it was 160 nM. For the same compound, in the test on VERO, the IC50 is 4780 nM.
